Experimental data from ChEMBL document CHEMBL4825697, “Optimization and SAR research at the piperazine and phenyl rings of JNJ4796 as new anti-influenza A virus agents, part 1” (Eur J Med Chem, 2021).
pIC50: −log10 of the molar value.

Columns and labels:
Influenza A virus = experiment: Antiviral activity against Oseltamivir resistant Influenza A virus (A/Tianjin-Jinnan/15/2009(H1N1) infected in dog MDCK cells assessed as inhibition of surface glycoprotein hemagglutinin; format: functional, organism-based
[1] = Selectivity index, ratio of CC50 for cytotoxicity against dog MDCK cells to IC50 for antiviral activity against Oseltamivir resistant Influenza A virus (A/Tianjin-Jinnan/15/2009(H1N1)) infected in dog MDCK cells; format: toxicity, cell-based; settings: read-out: Selectivity Index

Row | Structure (SMILES) | pIC50 (Influenza A virus) | selectivity ratio [1]
1 | CC(=O)Nc1ccc2oc(-c3ccnc(C(=O)N4CCN([C@@H](c5ccccc5)c5nnn(C)n5)CC4)c3)nc2c1 | 5.07 | > 23
2 | CC(=O)Nc1ccc2oc(-c3ccnc(C(=O)N4CCN([C@H](c5ccccc5)c5nnn(C)n5)CC4)c3)nc2c1 | 7.30 | 2870
3 | CC(=O)Nc1ccc2oc(-c3ccnc(C(=O)N4CCN([C@H](c5ccc(F)cc5)c5nnn(C)n5)CC4)c3)nc2c1 | 7.22 | > 3330
4 | CC(=O)Nc1ccc2oc(-c3ccnc(C(=O)N4CCN([C@@H](c5ccc(F)cc5)c5nnn(C)n5)CC4)c3)nc2c1 | 5.18 | > 30
5 | CCOC(=O)C1=C[C@@H](OC(CC)CC)[C@H](NC(C)=O)[C@@H](N)C1 [OSELTAMIVIR] | 3.75 | > 1
6 | NC(=O)c1ncn([C@@H]2O[C@H](CO)[C@@H](O)[C@H]2O)n1 [RIBAVIRIN] | 5.37 | > 46
